Measured values taken from patent US8669206B2, “Composition and method for controlling arthropod pests” (Sumitomo Chemical Company, Limited, priority 2009, dated 2014).

Columns and labels:
Type in all cases: in vivo
Pseudaletia separata [1] = test: Test Example 2: control of Pseudaletia separata larvae on rice seedlings, treatment at the foot of the seedlings; conditions: single compound, 5 mL/cup, larvae released after 2 days, counted after 3 days
Protocol: (§1) Control rate=100×(1−[(Ts/30)/(Cs/30)]) “Equation A” Ts and Cs represent the number of surviving larvae in a treated group and that in a non-treated group, respectively. Provided that, when the control rate is less than 0 (Ts>Cs), it is indicated by 0.
(§2) The compound I was dissolved in water to prepare an aqueous solution having a prescribed concentration. Also, the compound (2) was dissolved in a mixed solution (44:1) of acetone and Tween 20, followed by dilution with water to prepare a chemical solution. These solutions were appropriately mixed to prepare a test mixed chemical solution having a prescribed concentration of the compound I and the compound (2).
(§3) A 90 mL plastic cup was filled with cultivation soil and 15 rice seeds were sown.
(§4) Two weeks after seedlings emerged, the foot of rice seedlings were treated with the test mixed chemical solution (5 mL/plastic cup). After 2 days, 30 of first-instar larvae of Pseudaletia separata were released per plastic cup. After 3 days, the number of surviving larvae was counted and the control rate was calculated using the equation A in the same manner as in Test Example 1.
(§5) For comparison, tests were conducted in the same manner using a test aqueous solution having a prescribed concentration of the compound I, prepared by diluting an aqueous solution of the compound I with water, and a test chemical solution having a prescribed concentration of the compound (2), prepared by dissolving the compound (2) in a mixed solution (1:9) of acetone and Tween 20, followed by dilution with water.

Pseudaletia separata [2] = test: Test Example 1: control of Pseudaletia separata larvae on rice seedlings, treatment at the foot of the seedlings; conditions: single compound, 5 mL/cup, larvae released after 2 days, counted after 3 days
Protocol: The compound I was dissolved in water to prepare an aqueous solution having a prescribed concentration. Also, the compound (1) (Coragen (registered trademark), product of DuPont) was diluted with water to prepare a chemical solution of the compound. These solutions were appropriately mixed to prepare a test mixed chemical solution having a prescribed concentration of the compound I and the compound (1).
as §3
as §4, with “A.” for “A in the same manner as in Test Example 1.”
as §5, with “aqueous” for “chemical”, “(1),” for “(2),”, “diluting an aqueous solution of” for “dissolving”, “(1)” for “(2) in a mixed solution (1:9) of acetone and Tween 20, followed by dilution”
as §1

Pseudaletia separata [3] = test: Test Example 3: control of Pseudaletia separata larvae on rice seedlings treated with chemical solution and air dried; conditions: single compound, 20 mL/cup, larvae released after air drying, counted after 3 days
Protocol: as §1
as §2, with “(3)” for “(2)”, “(3).” for “(2).”
A 90 mL plastic cup, was filled with cultivation soil and 15 rice seeds were sown.
as §4, with “the” for “the foot of”, “(20” for “(5”, “air dying,” for “2 days,”, “1 and Test Example 2.” for “1.”
as §5, with “(3),” for “(2),”, “(3)” for “(2)”

CNC(=O)c1cc(C#N)cc(C)c1NC(=O)c1cc(Br)nn1-c1ncccc1Cl [Compound (2), cyantraniliprole, reference compound]
Control rate (%) (Pseudaletia separata [1]; 1.0 ppm): 59%

O=C(O)CCC(=O)NCCc1ccccc1 [Compound I, 4-oxo-4-[(2-phenylethyl)amino]-butyric acid]
Control rate (%) (Pseudaletia separata [2]; 10 ppm): 0% | Control rate (%) (Pseudaletia separata [2]; 30 ppm): 0% | Control rate (%) (Pseudaletia separata [2]; 100 ppm): 0% | Control rate (%) (Pseudaletia separata [1]; 30 ppm): 0% | Control rate (%) (Pseudaletia separata [1]; 100 ppm): 0% | Control rate (%) (Pseudaletia separata [3]; 10 ppm): 0% | Control rate (%) (Pseudaletia separata [3]; 30 ppm): 0% | Control rate (%) (Pseudaletia separata [3]; 100 ppm): 0%

CC(NC(=O)c1cc(Cl)cc(Br)c1NC(=O)c1cc(Br)nn1-c1ncccc1Cl)C1CC1 (stereo not drawn) [Compound (3), N-[2-bromo-4-chloro-6-[[α-methyl-(cyclopropylmethyl)amino]carbonyl]-phenyl]-3-bromo-1-(3-chloro-2-pyridinyl)-1H-pyrazole-5-carboxamide]
Control rate (%) (Pseudaletia separata [3]; 0.3 ppm): 58%

CNC(=O)c1cc(Cl)cc(C)c1NC(=O)c1cc(Br)nn1-c1ncccc1Cl [Compound (1), chlorantraniliprole, reference compound]
Control rate (%) (Pseudaletia separata [2]; 1.0 ppm): 78% | Control rate (%) (Pseudaletia separata [2]; 3.0 ppm): 87%
